Data reported in ChEMBL document CHEMBL3603744, “Structure activity relationship of C-2 ether substituted 1,5-naphthyridine analogs of oxabicyclooctane-linked novel bacterial topoisomerase inhibitors as broad-spectrum antibacterial agents (Part-5)” (Bioorg Med Chem Lett, 2015).
≈ marks a conversion by molar mass, not a printed value. Calls of active or inactive are those of the source. How the calls were made is not given here.

Columns and labels:
Staphylococcus aureus [1] = experiment: Antimicrobial activity against Staphylococcus aureus Smith by micro broth dilution or agar based method; type: functional
Streptococcus pneumoniae = experiment: Antimicrobial activity against Streptococcus pneumoniae IID553 by micro broth dilution or agar based method; type: functional
Enterococcus faecium = experiment: Antimicrobial activity against vancomycin-resistant Enterococcus faecium VanA by micro broth dilution or agar based method; type: functional
Escherichia coli = experiment: Antimicrobial activity against Escherichia coli ATCC 25922 by micro broth dilution or agar based method; type: functional
Acinetobacter baumannii = experiment: Antimicrobial activity against Acinetobacter baumannii IID876 by micro broth dilution or agar based method; type: functional
Pseudomonas aeruginosa = experiment: Antimicrobial activity against Pseudomonas aeruginosa PAO1 by micro broth dilution or agar based method; type: functional
Staphylococcus aureus [2] = experiment: Antimicrobial activity against methicillin-resistant Staphylococcus aureus OIT971 by micro broth dilution or agar based method; type: functional, organism-based

Row | SMILES | MIC (Staphylococcus aureus [1]) [µg/mL] | MIC (Streptococcus pneumoniae) [µg/mL] | MIC (Enterococcus faecium) [µg/mL] | MIC (Escherichia coli) [µg/mL] | MIC (Acinetobacter baumannii) [µg/mL] | MIC (Pseudomonas aeruginosa) [µg/mL] | growth inhibition (GI) (Staphylococcus aureus [2])
1 | COc1ccc2ncc(F)c(C[C@H](O)C34CCC(NCc5ccc6c(n5)NC(=O)CO6)(CC3)CO4)c2n1 [listing 1 of 2 here] | 0.02 (≈ 0.0393 µM) | 0.05 (≈ 0.0981 µM) | 0.5 (≈ 0.981 µM) | 2 (≈ 3.93 µM) | 0.5 (≈ 0.981 µM) | 8 (≈ 15.7 µM) | 
2 | COc1ccc2ncc(F)c(C[C@H](O)C34CCC(NCc5ccc6c(n5)NC(=O)CO6)(CC3)CO4)c2n1 [listing 2 of 2 here] |  |  |  |  |  |  | Active
3 | CC(C)(O)CCOc1ccc2ncc(F)c(CCC34CCC(NCc5ccc6c(n5)NC(=O)CO6)(CC3)CO4)c2n1 | 1 (≈ 1.77 µM) | 4 (≈ 7.07 µM) | 16 (≈ 28.3 µM) | 16 (≈ 28.3 µM) | 16 (≈ 28.3 µM) | 16 (≈ 28.3 µM) | Active
4 | NC1CC1COc1ccc2ncc(F)c(CCC34CCC(NCc5ccc6c(n5)NC(=O)CO6)(CC3)CO4)c2n1 (configuration not stated) | 0.125 (≈ 0.228 µM) | 1 (≈ 1.82 µM) | 4 (≈ 7.29 µM) | 2 (≈ 3.65 µM) | 0.25 (≈ 0.456 µM) | 16 (≈ 29.2 µM) | Active
5 | NCCCOc1ccc2ncc(F)c(CCC34CCC(NCc5ccc6c(n5)NC(=O)CO6)(CC3)CO4)c2n1 [listing 1 of 2 here] | 0.25 (≈ 0.466 µM) | 0.5 (≈ 0.932 µM) | 4 (≈ 7.45 µM) | 2 (≈ 3.73 µM) | 2 (≈ 3.73 µM) | 8 (≈ 14.9 µM) | 
6 | NCC(O)COc1ccc2ncc(F)c(CCC34CCC(NCc5ccc6c(n5)NC(=O)CO6)(CC3)CO4)c2n1 (configuration not stated) | 2 (≈ 3.62 µM) | 1 (≈ 1.81 µM) | 16 (≈ 29 µM) | 8 (≈ 14.5 µM) | 32 (≈ 57.9 µM) | 16 (≈ 29 µM) | Active
7 | N[C@H]1CO[C@H]1COc1ccc2ncc(F)c(CCC34CCC(NCc5ccc6c(n5)NC(=O)CO6)(CC3)CO4)c2n1 | 0.063 (≈ 0.112 µM) | 0.5 (≈ 0.886 µM) | 4 (≈ 7.08 µM) | 4 (≈ 7.08 µM) | 1 (≈ 1.77 µM) | 32 (≈ 56.7 µM) | Active
8 | NC1(COc2ccc3ncc(F)c(CCC45CCC(NCc6ccc7c(n6)NC(=O)CO7)(CC4)CO5)c3n2)CC1 | 0.25 (≈ 0.456 µM) | 1 (≈ 1.82 µM) | 8 (≈ 14.6 µM) | 2 (≈ 3.65 µM) | 1 (≈ 1.82 µM) | 16 (≈ 29.2 µM) | Active
9 | N[C@@H]1CO[C@H]1COc1ccc2ncc(F)c(CCC34CCC(NCc5ccc6c(n5)NC(=O)CO6)(CC3)CO4)c2n1 | 0.25 (≈ 0.443 µM) | 2 (≈ 3.54 µM) | 8 (≈ 14.2 µM) | 4 (≈ 7.08 µM) | 1 (≈ 1.77 µM) | 16 (≈ 28.3 µM) | Active
10 | N[C@@H]1C(=O)NC[C@H]1Oc1ccc2ncc(F)c(CCC34CCC(NCc5ccc6c(n5)NC(=O)CO6)(CC3)CO4)c2n1 | 16 (≈ 27.7 µM) | 16 (≈ 27.7 µM) | 16 (≈ 27.7 µM) | 16 (≈ 27.7 µM) | 16 (≈ 27.7 µM) | 16 (≈ 27.7 µM) | Active
11 | N#CCCCOc1ccc2ncc(F)c(CCC34CCC(NCc5ccc6c(n5)NC(=O)CO6)(CC3)CO4)c2n1 | 0.031 (≈ 0.0567 µM) | 0.5 (≈ 0.915 µM) | 2 (≈ 3.66 µM) | 4 (≈ 7.32 µM) | 2 (≈ 3.66 µM) | 16 (≈ 29.3 µM) | Active
12 | O=C(O)CCCOc1ccc2ncc(F)c(CCC34CCC(NCc5ccc6c(n5)NC(=O)CO6)(CC3)CO4)c2n1 | 0.25 (≈ 0.442 µM) | 0.5 (≈ 0.884 µM) | 4 (≈ 7.07 µM) | 16 (≈ 28.3 µM) | 16 (≈ 28.3 µM) | 16 (≈ 28.3 µM) | Active
13 | O=C1COc2ccc(CNC34CCC(CCc5c(F)cnc6ccc(OCCCCO)nc56)(CC3)OC4)nc2N1 | 0.031 (≈ 0.0562 µM) | 0.5 (≈ 0.906 µM) | 2 (≈ 3.63 µM) | 8 (≈ 14.5 µM) | 2 (≈ 3.63 µM) | 16 (≈ 29 µM) | Active
14 | NCCCOc1ccc2ncc(F)c(CCC34CCC(NCc5ccc6c(n5)NC(=O)CO6)(CC3)CO4)c2n1 [listing 2 of 2 here] |  |  |  |  |  |  | Active
15 | COC(=O)CCCCOc1ccc2ncc(F)c(CCC34CCC(NCc5ccc6c(n5)NC(=O)CO6)(CC3)CO4)c2n1 | 0.063 (≈ 0.106 µM) | 0.5 (≈ 0.842 µM) | 2 (≈ 3.37 µM) | 4 (≈ 6.74 µM) | 4 (≈ 6.74 µM) | 4 (≈ 6.74 µM) | Active
16 | COCCOc1ccc2ncc(F)c(CCC34CCC(NCc5ccc6c(n5)NC(=O)CO6)(CC3)CO4)c2n1 [listing 1 of 2 here] |  |  |  |  |  |  | Active

Row | SMILES | MIC (Staphylococcus aureus [1]) [µg/mL] | MIC (Streptococcus pneumoniae) [µg/mL] | MIC (Enterococcus faecium) [µg/mL] | MIC (Escherichia coli) [µg/mL] | MIC (Acinetobacter baumannii) [µg/mL] | MIC (Pseudomonas aeruginosa) [µg/mL] | growth inhibition (GI) (Staphylococcus aureus [2])
17 | N[C@H]1CO[C@@H]1COc1ccc2ncc(F)c(CCC34CCC(NCc5ccc6c(n5)NC(=O)CO6)(CC3)CO4)c2n1 | 0.125 (≈ 0.221 µM) | 0.5 (≈ 0.886 µM) | 4 (≈ 7.08 µM) | 4 (≈ 7.08 µM) | 0.5 (≈ 0.886 µM) | 16 (≈ 28.3 µM) | Active
18 | CCOC(=O)COc1ccc2ncc(F)c(CCC34CCC(NCc5ccc6c(n5)NC(=O)CO6)(CC3)CO4)c2n1 | 0.25 (≈ 0.442 µM) | 16 (≈ 28.3 µM) | 16 (≈ 28.3 µM) | 16 (≈ 28.3 µM) | 8 (≈ 14.1 µM) | 16 (≈ 28.3 µM) | Active
19 | O=C1COc2ccc(CNC34CCC(CCc5c(F)cnc6ccc(OCCC(F)(F)C(=O)O)nc56)(CC3)OC4)nc2N1 | 16 (≈ 26.6 µM) | 16 (≈ 26.6 µM) | 16 (≈ 26.6 µM) | 16 (≈ 26.6 µM) | 16 (≈ 26.6 µM) | 16 (≈ 26.6 µM) | Active
20 | O=C1COc2ccc(CNC34CCC(CCc5c(F)cnc6ccc(OCC(F)(F)F)nc56)(CC3)OC4)nc2N1 | 0.063 (≈ 0.112 µM) | 1 (≈ 1.78 µM) | 4 (≈ 7.12 µM) | 16 (≈ 28.5 µM) | 8 (≈ 14.2 µM) | 16 (≈ 28.5 µM) | Active
21 | O=C1COc2ccc(CNC34CCC(CCc5c(F)cnc6ccc(OC7CCC7)nc56)(CC3)OC4)nc2N1 | 0.125 (≈ 0.234 µM) | 2 (≈ 3.75 µM) | 8 (≈ 15 µM) | 64 (≈ 120 µM) | 8 (≈ 15 µM) | 64 (≈ 120 µM) | Active
22 | O=C1COc2ccc(CNC34CCC(CCc5c(F)cnc6ccc(OCCCCCO)nc56)(CC3)OC4)nc2N1 [listing 1 of 2 here] | 0.063 (≈ 0.111 µM) | 1 (≈ 1.77 µM) | 4 (≈ 7.07 µM) | 8 (≈ 14.1 µM) | 8 (≈ 14.1 µM) | 8 (≈ 14.1 µM) | 
23 | O=C1COc2ccc(CNC34CCC([C@@H](O)Cc5c(F)cnc6ccc(OCCCO)nc56)(CC3)OC4)nc2N1 [listing 1 of 2 here] |  |  |  |  |  |  | Active
24 | O=C1COc2ccc(CNC34CCC(CCc5c(F)cnc6ccc(OCCO)nc56)(CC3)OC4)nc2N1 [listing 1 of 2 here] |  |  |  |  |  |  | Active
25 | O=C1COc2ccc(CNC34CCC([C@@H](O)Cc5c(F)cnc6ccc(OCCCO)nc56)(CC3)OC4)nc2N1 [listing 2 of 2 here] | 0.125 (≈ 0.226 µM) | 0.5 (≈ 0.903 µM) | 4 (≈ 7.23 µM) | 16 (≈ 28.9 µM) | 4 (≈ 7.23 µM) | 16 (≈ 28.9 µM) | 
26 | O=C1COc2ccc(CNC34CCC(CCc5c(F)cnc6ccc(OCCCO)nc56)(CC3)OC4)nc2N1 [listing 1 of 2 here] | 0.016 (≈ 0.0298 µM) | 0.25 (≈ 0.465 µM) | 1 (≈ 1.86 µM) | 4 (≈ 7.44 µM) | 2 (≈ 3.72 µM) | 16 (≈ 29.8 µM) | 
27 | COC(=O)[C@@H]1C[C@@H]1COc1ccc2ncc(F)c(CCC34CCC(NCc5ccc6c(n5)NC(=O)CO6)(CC3)CO4)c2n1 (relative stereo) |  |  |  |  |  |  | Active
28 | COCCOc1ccc2ncc(F)c(CCC34CCC(NCc5ccc6c(n5)NC(=O)CO6)(CC3)CO4)c2n1 [listing 2 of 2 here] | 0.063 (≈ 0.117 µM) | 1 (≈ 1.86 µM) | 4 (≈ 7.44 µM) | 8 (≈ 14.9 µM) | 4 (≈ 7.44 µM) | 16 (≈ 29.8 µM) | 
29 | O=C1COc2ccc(CNC34CCC(CCc5c(F)cnc6ccc(OCCCCCO)nc56)(CC3)OC4)nc2N1 [listing 2 of 2 here] |  |  |  |  |  |  | Active
30 | O=C1COc2ccc(CNC34CCC(CCc5c(F)cnc6ccc(OCCCO)nc56)(CC3)OC4)nc2N1 [listing 2 of 2 here] |  |  |  |  |  |  | Active
31 | O=C1COc2ccc(CNC34CCC(CCc5c(F)cnc6ccc(OCCO)nc56)(CC3)OC4)nc2N1 [listing 2 of 2 here] | 0.031 (≈ 0.0592 µM) | 0.25 (≈ 0.477 µM) | 1 (≈ 1.91 µM) | 4 (≈ 7.64 µM) | 1 (≈ 1.91 µM) | 8 (≈ 15.3 µM) | 
